Test results as given in US12691182B2, “Maytansinoid derivatives, conjugates thereof, and methods of use” (priority 2016, dated 2026).

How the values were obtained:
Assay type in all cases: cell-based
[1] = system: Ovcar3 (Muc16+) cells; assay: In vitro cytotoxicity assay, Ovcar3 cells (CCK8 viability); conditions: naked payload, 3 days; for Ovcar3 % kill: % kill reported for the highest dose; for IC50: CCK8
Procedure: (§1) In this Example, the ability of various antibody-drug conjugates and naked payloads to kill antigen-expressing tumor cells in vitro was assessed.
(§2) Ovcar3 (Muc16+) cells were seeded in 96 well plates at 3000 cells per well in complete growth media and grown overnight. For cell viability curves, serially diluted conjugates or naked payloads were added to the cells at final concentrations ranging from 100 nM to 5 pM and incubated for 3 days. To measure viability, cells were incubated with CCK8 (Dojindo) for the final 2 hours and the absorbance at 450 nm (OD450) was determined on a Victor (Perkin Elmer). Background OD450 levels determined from digitonin (40 nM) treated cells were subtracted from all wells and viability is expressed as a percentage of the untreated controls. IC50 values were determined from a four-parameter logistic equation over a 10-point response curve (GraphPad Prism). […] All curves and IC50 values are corrected for payload equivalents. The plot of % Cell Viability vs. Log 10 [M]
(§3) All IC50s are expressed in nM concentration and % kill is reported for the highest dose. All curves and IC50 values are corrected for payload equivalents. The plot of % Cell Viability vs. Log 10 [M]

[2] = system: SKBR3 (Her2+) cells; assay: In vitro cytotoxicity assay, SKBR3 cells (CCK8 viability); conditions: naked payload, SKBr-3 cells, 3 days; for SKBr-3 % kill: % kill reported for the highest dose; for IC50: CCK8
Procedure: as §1
as §2, with “SKBR3 (Her2+)” for “Ovcar3 (Muc16+)”, “8000” for “3000”
as §3

[3] = system: C4-2 (STEAP2+) cells; assay: In vitro cytotoxicity assay, C4-2 cells (CellTiter-Glo viability); conditions: naked payload, 5 days; for C4-2 % kill: % kill reported for the highest dose; for IC50: CellTiter-Glo
Procedure: as §1
C4-2 (STEAP2+) cells were seeded in 96 well plates at 4000 cells per well in complete growth media and grown overnight. For cell viability curves, serially diluted conjugates or naked payloads were added to the cells at final concentrations ranging from 100 nM to 5 pM and incubated for 5 days. To measure viability, cells were incubated with CellTiter-Glo reagents for 5 minutes and luminescence was determined on a Victor plate reader (PerkinElmer). IC50 values were determined from a four-parameter logistic equation over a 10-point response curve (GraphPad Prism).
as §3

Structure (SMILES)	Ovcar3 % kill [1]	IC50 [1]	SKBr-3 % kill [2]	IC50 [2]	C4-2 % kill [3]	IC50 [3]
COc1cc2cc(c1Cl)N(C)C(=O)CC(OC(=O)Nc1ccc(N)cc1Cl)C1(C)OC1C(C)C1CC(O)(NC(=O)O1)C(OC)C=CC=C(C)C2 (stereo not drawn) [Compound 17, Maytan-3-O-carbamoyl-N-(2-chloro-4-amino)benzene]	*** (*** indicates % kill greater than, or equal to, 90 and less than 95)	0.001 to 0.01 nM	***** (***** indicates % kill greater than, or equal to, 99)	0.01 to 0.1 nM	**** (**** indicates % kill greater than, or equal to, 95 and less than 99)	0.1 to 1 nM
COc1cc2cc(c1Cl)N(C)C(=O)CC(OC(=O)Nc1ccc(N)cc1)C1(C)OC1C(C)C1CC(O)(NC(=O)O1)C(OC)C=CC=C(C)C2 (stereo not drawn) [Compound 8, Maytan-3-O-carbamoyl-N-(4-aminobenzene)]	** (** indicates % kill greater than, or equal to, 85 and less than 90)	1 to 10 nM	**** (**** indicates % kill greater than, or equal to, 95 and less than 99)	1 to 10 nM	**** (**** indicates % kill greater than, or equal to, 95 and less than 99)	≥ 10 nM
